According to patent US5010102A, “Anti-ulcer 5-(2-substituted ethenyl)-3(2H)-furanones” (American Home Products Corp., priority 1990, dated 1991):

What follows are molecules tested on gastric mucosal lesions produced by ethanol (assay: prevention of gastric mucosal lesions produced by ethanol in rats (cytoprotective/anti-ulcer, Robert et al.)). Details: Rattus norvegicus; 10 mg/kg, oral, usually 1 hour before ethanol; male Sprague-Dawley rats; read-out: percentage inhibition of lesion formation.
Type: in vivo
Protocol: The rats were placed in individual cages and denied water 2 hours or more before testing. At a fixed time before administration of ethanol (usually 1 hour), the animals were orally administered either the test compound or its water-carboxymethylcellulose vehicle. Ethanol was then administered orally at a dose of 1 mL per animal. One hour after administration of the ethanol, the animals were sacrificed and their stomachs removed, cut along the greater curvature and flushed clean with tap water. Macroscopic lesions on the gastric mucosa were graded from 0-3 based upon the absence of lesions to the presence of lesions which approximate 6 millimeters in length. Comparison of the treated group with the control group permits expression of the results as percentage inhibition of lesion formation as a direct measure of cytoprotection. […] The results of these studies are given at the end of each example illustrating the preparation of the tested compound, supra, as the percent inhibition or ED50 where the latter value was determined.
For Cn1cccc1/C=C/C1=CC(=O)C(C)(C)O1 [Example 16, 2,2-Dimethyl-5-[2-(1-methyl-2-pyrrolyl)ethenyl]-3(2H)-furanone], the inhibition in vivo at 10 mg/kg was 32%.
In the case of CC1(c2ccc(F)cc2)OC(/C=C/c2ccccn2)=CC1=O (stereo not drawn) [Example 32, 2-Methyl-2-(4-fluorophenyl)-5-[2-(2-pyridinyl)ethenyl]-3(2H)-furanone], the inhibition in vivo at 10 mg/kg is reported as 92%.
Molecule CC1(c2ccc(F)cc2)OC(/C=C/c2ccsc2)=CC1=O (stereo not drawn) [Example 33, 2-(4-Fluorophenyl)-2-methyl-5-[2-(3-thienyl)ethenyl]-3(2H)-furanone] has an inhibition in vivo at 10 mg/kg of 22%.
CC1(c2ccccc2)OC(/C=C/c2ccc(C#N)cc2)=CC1=O (stereo not drawn) [Example 29, 4-[2-[2,3-Dihydro-2-methyl-3-oxo-2-phenyl-5-furanyl]ethenyl]benzonitrile] was tested, and the inhibition in vivo at 10 mg/kg was 4%.
CC1(C)OC(/C=C/c2ccoc2)=CC1=O [Example 25, 5-[2-(3-Furanyl)ethenyl]-2,2-dimethyl-3(2H)-furanone] showed an inhibition in vivo at 10 mg/kg of 35%.
CC1(C)OC(/C=C/c2cc3ccccc3s2)=CC1=O [Example 24, 5-[2-(Benzo[b]thien-2-yl)ethenyl]-2,2-dimethyl-3(2H)-furanone] was tested, and the inhibition in vivo at 10 mg/kg was 17%.
For CC1(c2ccccc2)OC(/C=C/c2ccncc2)=CC1=O (stereo not drawn) [Example 27, 2-Methyl-2-phenyl-5-[2-(4-pyridinyl)ethenyl]-3(2H)-furanone], the inhibition in vivo at 10 mg/kg was 44%.
Work on CC1(C)OC(/C=C/c2cnccn2)=CC1=O [Example 21, 2,2-Dimethyl-5-[2-(2-pyrazinyl)ethenyl]-3(2H)-furanone] yielded an inhibition in vivo at 10 mg/kg of 56%.
For CC1(C)OC(/C=C/c2cccs2)=CC1=O [Example 23, 2,2-Dimethyl-5-[2-(2-thienyl)ethenyl]-3(2H)-furanone], the inhibition in vivo at 10 mg/kg was 1%.
In the case of CC1(c2ccc(F)cc2)OC(/C=C/c2ccc(C#N)cc2)=CC1=O (stereo not drawn) [Example 31, 4-[2-[2,3-Dihydro-2-(4-fluorophenyl)-2-methyl-3-oxo-5-furanyl]ethenyl]benzonitrile], the inhibition in vivo at 10 mg/kg is reported as 1%.

Same assay, conditions: Rattus norvegicus; 25 mg/kg, oral, usually 1 hour before ethanol; male Sprague-Dawley rats; read-out: percentage inhibition of lesion formation
CC1(C)OC(/C=C/c2ccc(C(F)(F)F)cc2)=CC1=O [Example 11, 2,2-Dimethyl-5-[2-[4-(trifluoromethyl)phenyl]ethenyl]-3(2H)-furanone] showed an inhibition in vivo at 25 mg/kg of 30%.
Molecule CC1(C)OC(/C=C/c2ccc(F)cc2F)=CC1=O [Example 3, 5-[2-(2,4-Difluorophenyl)ethenyl]-2,2-dimethyl-3(2H)-furanone] has an inhibition in vivo at 25 mg/kg of 52%.
CSc1ccc(/C=C/C2=CC(=O)C(C)(C)O2)cc1 [Example 12, (E)-2,2-Dimethyl-5-[2-[4-(methylthio)phenyl]ethenyl]-3(2H)-furanone] showed an inhibition in vivo at 25 mg/kg of 5%.
CC1(C)OC(/C=C/c2ccc(S(C)(=O)=O)cc2)=CC1=O [Example 13, 2,2-Dimethyl-5-[2-[4-(methylsulfonyl)phenyl]ethenyl]-3(2H)-furanone] showed an inhibition in vivo at 25 mg/kg of 56%.
With CC1(C)OC(/C=C/c2ccc(Br)cc2)=CC1=O [Example 5, (E)-2,2-Dimethyl-5-[2-(4-bromophenyl)ethenyl]-3(2H)-furanone] the inhibition in vivo at 25 mg/kg was 63%.
CC1(C)OC(/C=C/c2ccc(F)c(F)c2)=CC1=O [Example 4, 5-[2-(3,4-Difluorophenyl)ethenyl]-2,2-dimethyl-3(2H)-furanone] was tested, and the inhibition in vivo at 25 mg/kg was 47%.
COc1cc(/C=C/C2=CC(=O)C(C)(C)O2)cc(OC)c1OC [Example 1, 2,2-Dimethyl-5-[2-(3,4,5-trimethoxyphenyl)ethenyl]-3(2H)-furanone] gave an inhibition in vivo at 25 mg/kg of 81%.

Same assay, conditions: Rattus norvegicus; oral, usually 1 hour before ethanol; male Sprague-Dawley rats; calculated from a series of dosage levels; read-out: ED50 (dose at which half the animals did not develop lesions significantly different from the control group)
CC1(c2ccccc2)OC(/C=C/c2cccnc2)=CC1=O (stereo not drawn) [Example 26, 2-Phenyl-2-methyl-5-[2-(3-pyridinyl)ethenyl]-3(2H)-furanone] gave an ED50 of 5 mg/kg.
For CC1(C)OC(/C=C/c2cc(Cl)cc(Cl)c2)=CC1=O [Example 10, 5-[2-(3,5-Dichlorophenyl)ethenyl]-2,2-dimethyl-3(2H)-furanone], the ED50 was 9 mg/kg.
Work on CC1(c2ccc(F)cc2)OC(/C=C/c2ccccn2)=CC1=O (stereo not drawn) [Example 32, 2-Methyl-2-(4-fluorophenyl)-5-[2-(2-pyridinyl)ethenyl]-3(2H)-furanone] yielded an ED50 of 3.5 mg/kg.
For CC1(C)OC(/C=C/c2cccnc2)=CC1=O [Example 19, 2,2-Dimethyl-5-[2-(3-pyridinyl)ethenyl]-3(2H)-furanone], the ED50 was 9.3 mg/kg.
In the case of CC1(C)OC(/C=C/c2ccc(S(C)(=O)=O)cc2)=CC1=O [Example 13, 2,2-Dimethyl-5-[2-[4-(methylsulfonyl)phenyl]ethenyl]-3(2H)-furanone], the ED50 is reported as 10.6 mg/kg.
Molecule CC1(C)OC(/C=C/c2ccsc2)=CC1=O [Example 22, 2,2-Dimethyl-5-[2-(3-thienyl)ethenyl]-3(2H)-furanone] has an ED50 of 4 mg/kg.
Work on CC1(C)OC(/C=C/c2ccc(C#N)cc2)=CC1=O [Example 14, 4-[2-(2,3-Dihydro-2,2-dimethyl-3-oxo-5-furanyl)ethenyl]benzonitrile] yielded an ED50 of 15 mg/kg.
Molecule CC1(C)OC(/C=C/c2ccnc3ccccc23)=CC1=O [Example 20, 5-[2-(4-Quinolinyl)ethenyl]-2,2-dimethyl-3(2H)-furanone] has an ED50 of 2.5 mg/kg.
CC1(C)OC(/C=C/c2ccc(Cl)cc2)=CC1=O [Example 6, 2,2-Dimethyl-5-[2-(4-chlorophenyl)ethenyl]-3(2H)-furanone] showed an ED50 of 10.3 mg/kg.
In the case of CC1(C)OC(/C=C/c2ccccn2)=CC1=O [Example 17, 2,2-Dimethyl-5-[2-(2-pyridinyl)ethenyl]-3(2H)-furanone], the ED50 is reported as 9 mg/kg.
For CC1(c2ccccc2)OC(/C=C/c2ccccn2)=CC1=O (stereo not drawn) [Example 28, 2-Methyl-2-phenyl-5-[2-(2-pyridinyl)ethenyl]-3(2H)-furanone], the ED50 was 6 mg/kg.
With CC1(C)OC(/C=C/c2ccc(F)cc2)=CC1=O [Example 2, 2,2-Dimethyl-5-[2-(4-fluorophenyl)ethenyl]-3(2H)-furanone] the ED50 was 11 mg/kg.
For CC1(C)OC(/C=C/c2ccncc2)=CC1=O [Example 18, 2,2-Dimethyl-5-[2-(4-pyridinyl)ethenyl]-3(2H)-furanone], the ED50 was 4 mg/kg.
